Test results from patent publication US20240158446A1, “CYCLIC COMPOUND HAVING SELECTIVE INHIBITORY ACTION ON KRAS OVER HRAS AND NRAS” (CHUGAI SEIYAKU KABUSHIKI KAISHA, priority 2021, published 2024).
Where two headings read alike, the source gives them in different places. Where a SMILES comes first, the peptide text is derived from it. Bridges are numbered along the chain shown (N, C = ends). [ ]: non-standard residue; d: D form. The star is where a group is joined. hPhe(3-Cl-4-CF3) = N[C@@H](CCc1ccc(C(F)(F)F)c(Cl)c1)C(=O)O; NPrPhe(4-CF3) = CCCN[C@@H](Cc1ccc(C(F)(F)F)cc1)C(=O)O; NMePhe(4-Me) = CN[C@@H](Cc1ccc(C)cc1)C(=O)O; NMeGly(cPent) = CN[C@H](C(=O)O)C1CCCC1; Pro(4,4-F2) = O=C(O)[C@@H]1CC(F)(F)CN1; NMeD = CN[C@@H](CC(=O)O)C(=O)O; NMeL = CN[C@@H](CC(C)C)C(=O)O; Morpholide = C1CN(*)CCO1; NMeAib = CNC(C)(C)C(=O)O; Nle = CCCC[C@H](N)C(=O)O; Piperidide = C1CCN(*)CC1; Aze = O=C(O)[C@@H]1CCN1; Ac4c = NC1(C(=O)O)CCC1; Sar = CNCC(=O)O

Columns and labels:
[1] = target: GDP-bound KRAS wild-type protein (Homo sapiens, UniProt P01116); assay: Binding to KRAS by surface plasmon resonance (SPR), Single Cycle Kinetics; conditions: GDP-bound KRAS wild-type protein, read-out: KRAS KD
[2] = target: GDP-bound NRAS wild-type protein (Homo sapiens, UniProt P01111); assay: Binding to NRAS by surface plasmon resonance (SPR), Single Cycle Kinetics; conditions: for NRAS/KRAS (ratio of KD value for NRAS to KD value for KRAS) / NRAS/KRAS (ratio of KD value with respect to NRAS to KD value with respect to KRAS): SPR, GDP-bound NRAS wild-type protein vs GDP-bound KRAS wild-type protein; for NRAS/KRAS (ratio of KD value with respect to GDP-bound NRAS wild-type protein to KD value with respect to KRAS): SPR KD ratio NRAS/KRAS, class symbols
[3] = target: GDP-bound HRAS wild-type protein (Homo sapiens, UniProt P01112); assay: Binding to HRAS by surface plasmon resonance (SPR), Single Cycle Kinetics; conditions: for HRAS/KRAS (ratio of KD value for HRAS to KD value for KRAS) / HRAS/KRAS (ratio of KD value with respect to HRAS to KD value with respect to KRAS): SPR, GDP-bound HRAS wild-type protein vs GDP-bound KRAS wild-type protein; for HRAS/KRAS (ratio of KD value with respect to GDP-bound HRAS wild-type protein to KD value with respect to KRAS): SPR KD ratio HRAS/KRAS, class symbols
[4] = SPR Single Cycle Kinetics, 1:1 binding model

Sequence of GDP-bound NRAS wild-type protein (P01111 whole entry): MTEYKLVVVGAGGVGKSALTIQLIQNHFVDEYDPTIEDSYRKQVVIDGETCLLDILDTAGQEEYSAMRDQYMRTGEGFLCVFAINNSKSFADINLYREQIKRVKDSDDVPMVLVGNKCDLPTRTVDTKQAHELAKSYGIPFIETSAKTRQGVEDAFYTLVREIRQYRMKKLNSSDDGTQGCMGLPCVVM
Sequence of GDP-bound KRAS wild-type protein (P01116 whole entry): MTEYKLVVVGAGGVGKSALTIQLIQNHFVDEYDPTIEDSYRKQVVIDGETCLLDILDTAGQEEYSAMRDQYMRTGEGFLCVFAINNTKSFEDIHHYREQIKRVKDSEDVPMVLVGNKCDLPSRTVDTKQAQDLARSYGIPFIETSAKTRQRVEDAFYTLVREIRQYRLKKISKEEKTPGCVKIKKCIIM
Sequence of GDP-bound HRAS wild-type protein (P01112 whole entry): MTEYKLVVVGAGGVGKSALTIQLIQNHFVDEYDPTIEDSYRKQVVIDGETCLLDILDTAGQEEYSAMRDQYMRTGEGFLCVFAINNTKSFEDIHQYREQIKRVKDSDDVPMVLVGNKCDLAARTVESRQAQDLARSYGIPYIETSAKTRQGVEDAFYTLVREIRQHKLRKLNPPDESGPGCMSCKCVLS

Row | SMILES | Kd [1, 4] [nM] | NRAS/KRAS (ratio of KD value for NRAS to KD value for KRAS) [2] | HRAS/KRAS (ratio of KD value for HRAS to KD value for KRAS) [3] | NRAS/KRAS (ratio of KD value with respect to GDP-bound NRAS wild-type protein to KD value with respect to KRAS) [2] | HRAS/KRAS (ratio of KD value with respect to GDP-bound HRAS wild-type protein to KD value with respect to KRAS) [3] | Kd ([1]; SPR, Single Cycle Kinetics) [nM] | NRAS/KRAS (ratio of KD value with respect to NRAS to KD value with respect to KRAS) [2] | HRAS/KRAS (ratio of KD value with respect to HRAS to KD value with respect to KRAS) [3]
1 | CCCC[C@@H]1NC(=O)[C@H](CCc2ccc(C(F)(F)F)c(Cl)c2)NC(=O)CN(C)C(=O)[C@H](Cc2ccc(C)cc2)N(C)C(=O)CN(C)C(=O)CN(C)C(=O)[C@H]([C@@H](C)CC)NC(=O)[C@H](CC(C)C)N(C)C(=O)C[C@@H](C(=O)N2CCCCC2)N(C)C(=O)[C@H](CC(C)C)NC(=O)C(C)(C)N(C)C1=O [PP0049] ([NMeL]I[Sar][Sar][NMePhe(4-Me)][Sar][hPhe(3-Cl-4-CF3)][Nle][NMeAib]L[NMeD]-Piperidide; lactam N-11) | 6.3 | C (A compound having a KD ratio of 0.1 or more and less than 3 is denoted as C) | C (A compound having a KD ratio of 0.1 or more and less than 3 is denoted as C) | – | – | – | – | –
2 | CCC[C@H]1C(=O)N[C@@H]([C@@H](C)CC)C(=O)N(C)CC(=O)N(C)[C@H]2C/C=C\CCN(C2=O)[C@@H](Cc2ccc(C)cc2)C(=O)N(C)CC(=O)N[C@@H](CCc2ccc3sc(F)c(C)c3c2)C(=O)N2C[C@H](OCC)C[C@H]2C(=O)NC2(CC(C)(C)C2)C(=O)N(C)[C@@H](C2CCCC2)C(=O)N(C)[C@H](C(=O)N(C)C)CC(=O)N1C [PP2949] | 0.059 | – | – | A (a compound having 10 or more and less than 20 is denoted as A) | A (a compound having 10 or more and less than 20 is denoted as A) | – | – | –
3 | CCC[C@H]1C(=O)N[C@@H]([C@@H](C)CC)C(=O)N(C)CC(=O)N(C)[C@H]2C/C=C\CCN(C2=O)[C@@H](Cc2ccc(C(F)(F)F)cc2)C(=O)N(C)CC(=O)N[C@@H](CCc2cc(F)c3c(c2)CCC3)C(=O)N2C[C@H](OCC)C[C@H]2C(=O)NC2(CC(C)(C)C2)C(=O)N(C)[C@@H](C2CCCC2)C(=O)N(C)[C@H](C(=O)N(C)C)CC(=O)N1C [PP2849] | 0.58 | – | – | A (a compound having 10 or more and less than 20 is denoted as A) | A (a compound having 10 or more and less than 20 is denoted as A) | – | – | –
4 | CCO[C@@H]1C[C@H]2C(=O)NC3(CC(C)(C)C3)C(=O)N(C)[C@@H](C3CCCC3)C(=O)N(C)[C@H](C(=O)N(C)CC)CC(=O)N(C)[C@@H](CC(C)C)C(=O)N[C@@H]([C@@H](C)CC)C(=O)N(C)CC(=O)N(C)[C@H]3C/C=C\CCN(C3=O)[C@@H](Cc3ccc(C(F)F)cc3)C(=O)N(C)CC(=O)N[C@@H](CCc3cc(F)c(C(F)(F)F)c(F)c3)C(=O)N2C1 [PP2046] | – | A (a compound having 10 or more and less than 20 is denoted as A) | A (a compound having 10 or more and less than 20 is denoted as A) | – | – | 0.063 | – | –
5 | CCCN1C(=O)[C@@H]2CCN2C(=O)CN(C)C(=O)[C@H]([C@@H](C)CC)NC(=O)[C@H](CC(C)C)N(C)C(=O)C[C@@H](C(=O)N2CCOCC2)N(C)C(=O)[C@H](C2CCCC2)N(C)C(=O)C2(CCC2)NC(=O)[C@@H]2CC(F)(F)CN2C(=O)[C@H](CCc2ccc(C(F)(F)F)c(Cl)c2)NC(=O)CN(C)C(=O)[C@@H]1Cc1ccc(C(F)(F)F)cc1 [PP0409] ([NMeL]I[Sar][Aze][NPrPhe(4-CF3)][Sar][hPhe(3-Cl-4-CF3)][Pro(4,4-F2)][Ac4c][NMeGly(cPent)][NMeD]-Morpholide; lactam N-11) | 0.056 | – | – | – | – | – | C (A compound having a KD ratio of 0.1 or more and less than 3 is denoted as C) | C (A compound having a KD ratio of 0.1 or more and less than 3 is denoted as C)
6 | CCCN1C(=O)CN(C)C(=O)CN(C)C(=O)[C@H]([C@@H](C)CC)NC(=O)[C@H](CC(C)C)N(C)C(=O)C[C@@H](C(=O)N(C)C)NC(=O)[C@H](C2CCCC2)N(C)C(=O)C2(CCC2)NC(=O)[C@@H]2CCCN2C(=O)[C@H](CCc2ccc(C(F)(F)F)c(Cl)c2)NC(=O)CN(C)C(=O)[C@@H]1Cc1ccc(C(F)(F)F)cc1 [PP0356] ([NMeL]I[Sar][Sar][NPrPhe(4-CF3)][Sar][hPhe(3-Cl-4-CF3)]P[Ac4c][NMeGly(cPent)]D-NMe2; lactam N-11) | 0.49 | B (a compound having 3 or more and less than 10 is denoted as B) | B (a compound having 3 or more and less than 10 is denoted as B) | – | – | – | – | –
7 | CC[C@H](C)[C@@H]1NC(=O)[C@H](COC)N(C)C(=O)C[C@@H](C(=O)N2CCOCC2)N(C)C(=O)[C@H](C2CCCC2)N(C)C(=O)C2(CCCC2)NC(=O)[C@@H]2C[C@H](O)CN2C(=O)[C@H](CCc2cc(F)c(C(F)(F)F)c(F)c2)NC(=O)CN(C)C(=O)[C@H](Cc2ccc(C(F)(F)F)cc2)N2CCCCC[C@@H](C2=O)N(C)C(=O)CN(C)C1=O [PP0847] | – | B (a compound having 3 or more and less than 10 is denoted as B) | B (a compound having 3 or more and less than 10 is denoted as B) | – | – | 0.28 | – | –
8 | CC[C@H](C)[C@@H]1NC(=O)[C@H](CC(C)C)N(C)C(=O)C[C@@H](C(=O)N2CCOCC2)N(C)C(=O)[C@H](C2CCCC2)N(C)C(=O)C2(CCCC2)NC(=O)[C@@H]2CCCN2C(=O)[C@H](CCc2cc(F)c(C(F)(F)F)c(F)c2)NC(=O)CN(C)C(=O)[C@H](Cc2ccc(C(F)(F)F)cc2)N2CCCC[C@@H](C2=O)N(C)C(=O)[C@@H]2CCCCN2C1=O [PP0548] | 15 | – | – | – | – | – | C (A compound having a KD ratio of 0.1 or more and less than 3 is denoted as C) | B (a compound having 3 or more and less than 10 is denoted as B)
9 | CCO[C@@H]1C[C@H]2C(=O)NC3(CCC3)C(=O)N(C)[C@@H](C3CCCC3)C(=O)N[C@H](C)CC(=O)N(C)[C@@H](CC)C(=O)N[C@@H]([C@@H](C)CC)C(=O)N(C)CC(=O)N(C)[C@H]3C/C=C\CCN(C3=O)[C@@H](Cc3ccc(C(F)(F)F)cc3)C(=O)N(C)CC(=O)N[C@@H](CCc3cc(F)c(C(F)(F)F)c(F)c3)C(=O)N2C1 [PP1098] | – | B (a compound having 3 or more and less than 10 is denoted as B) | B (a compound having 3 or more and less than 10 is denoted as B) | – | – | 0.68 | – | –
10 | CC[C@H](C)[C@@H]1NC(=O)[C@H](CC(C)C)N(C)C(=O)C[C@@H](C(=O)N(C)C)N(C)C(=O)[C@H](C2CCCC2)N(C)C(=O)C2(CCCC2)NC(=O)[C@@H]2CCCN2C(=O)[C@H](CCc2cc(F)c(C(F)(F)F)c(F)c2)NC(=O)CN(C)C(=O)[C@H](Cc2ccc(C(F)(F)F)cc2)N2CCCCC[C@@H](C2=O)N(C)C(=O)CN(CC)C1=O [PP0514] | 11 | – | – | – | – | – | B (a compound having 3 or more and less than 10 is denoted as B) | B (a compound having 3 or more and less than 10 is denoted as B)
